Data reported in US20060020042A1, “Memantine for the treatment of mild and mild to moderate Alzheimer's disease” (Forest Laboratories, Inc., priority 2004, published 2006).

Tests used:
[1] = tested on: NMDA receptor; conditions: uncompetitive antagonist; cited from earlier work
[2] = tested on: outpatients with mild-to-moderate Alzheimer's disease; assay: ADAS-cog in randomized, double-blind, placebo-controlled study; type: in vivo, human; conditions: for ADAS-cog Non-Responder, number of patients / ADAS-cog Responder (change from baseline <= -4), number of patients / ADAS-cog Difference (memantine minus placebo, LS mean): Week 24, ITT; for ADAS-cog Difference (memantine minus placebo, LS mean): 20 mg/day
Excerpt: The present invention is based on results from a randomized, double-blind, placebo-controlled, multi-center, parallel-group study comparing memantine to placebo in outpatients diagnosed with probable AD according to […] criteria. Severity of mild to moderate was established using the Mini-Mental State Examination (MMSE) score (≧10 and ≦22; 0 is the lowest score and 30 is the highest score). In the study of the present invention, there were approximately 400 patients enrolled across 42 centers. Evaluation of primary efficacy was achieved by Alzheimer's Disease Assessment Scale-cognitive subscale (ADAS-cog) and the Clinician's Interview-Based Impression of Change including caregiver information (CIBIC-plus). Secondary efficacy was determined using Alzheimer's disease Cooperative Study-Activities of Daily Living (ADCS-ADL) and Neuropsychiatric Inventory (NPI) criteria. The ADAS-cog comprises an 11-item scale that is used to assess the severity of selected areas of cognitive impairment (memory, language, orientation, reason and praxis). Scores range from 0 to 70 with lower scores indicating lesser severity and a score of 70 representing the worst cognitive impairment. Its use in assessing and following changes in patients with mild to moderate Alzheimer's disease has been extensively validated. The ADAS-cog was administered at each clinic visit starting with the Baseline visit and at the end of weeks 4, 8, 12, 18 and 24 (or upon early termination). The study consisted of 1-2 weeks of single-blind placebo treatment followed by 24 weeks of double-blind treatment. Results were evaluated over seven clinical visits; at initial screening, baseline, and the end of weeks 4, 8, 12, 18 and 24. The population of patients who received at least one dose of double-blind memantine, and completed at least one post-baseline efficacy evaluation of either the ADAS-cog or the CIBIC-plus is designated the “intent-to-treat” (ITT) population. The population of randomized patients who received at least one dose of double-blind study medication is designated the “safety population”. The randomized population designates all patients randomized into the study. This study was conducted as a fixed-dose study. All patients assigned to the memantine group received an initial dose of 5 mg per day; the dose was titrated in 5 mg weekly increments to a final dose of 20 mg/day (administered as two 5 mg tablets twice a day). Study drug was provided as blister packs containing masked study medication such that placebo and memantine tablets were visually identical, and all patients received four tablets of study medication daily (in combinations of memantine 5 mg tablets and matching placebo tablets). Transient dose adjustments were permitted between weeks 3 and 8 for patients experiencing dose-limiting adverse events. However, all patients were required to receive the target dose of 20 mg/day by the end of week 8. Patients not able to tolerate the target dose by week 8 were discontinued from the study. Statistical analysis. For primary efficacy measurements, (e.g., change from Baseline (visit 2) to Week 24 in the total ADAS-cog scores from the ITT population) the comparison between memantine and placebo were performed using two-way analysis of covariance (ANCOVA) with treatment group and center as the two factors, and the baseline scores as covariate. Both the Last Observation Carried Forward (LOCF) imputation approach and the Observed Cases (OC) approach were performed at week 24. Results of ANCOVA were summarized using least square (LS) means for each treatment group with corresponding standard error (SE), the between-treatment (2-24 week) difference in the least square means with corresponding 95% confidence interval, and the between-treatment p-value corresponds to the SAS Type III sum of squares.

[3] = tested on: outpatients with mild-to-moderate Alzheimer's disease; assay: ADCS-ADL in randomized, double-blind, placebo-controlled study; type: in vivo, human; conditions: Week 24, ITT, 20 mg/day
Experimental: In the study of the present invention, there were approximately 400 patients enrolled across 42 centers. Evaluation of primary efficacy was achieved by Alzheimer's Disease Assessment Scale-cognitive subscale (ADAS-cog) and the Clinician's Interview-Based Impression of Change including caregiver information (CIBIC-plus). Secondary efficacy was determined using Alzheimer's disease Cooperative Study-Activities of Daily Living (ADCS-ADL) and Neuropsychiatric Inventory (NPI) criteria. The ADCS-ADL inventory consists of 23 questions used to measure the functional capabilities of patients with dementia. These questions are selected from a larger set of 49 questions in the original ADL scale. A more common selection is of 19 questions from the same 49 question group. Each ADL item comprises a series of hierarchical sub-questions, ranging from the highest level of independent performance of each ADL to complete loss. The ADSC-ADL Inventory total score ranges from 0 (lower functioning status) to 78 (higher functioning status). A higher score indicates a better functioning status. […] Results were evaluated over seven clinical visits; at initial screening, baseline, and the end of weeks 4, 8, 12, 18 and 24. […] Descriptive statistics were calculated by visit. […]

CC12CC3CC(C)(C1)CC(N)(C3)C2 [Memantine, 1-amino-3,5-dimethyladamantane]
affinity for the NMDA receptor [1]: moderate affinity
ADAS-cog Non-Responder, number of patients ([2]; LOCF analysis): 158/148
ADAS-cog Responder (change from baseline <= -4), number of patients ([2]; LOCF analysis): 40/47
ADAS-cog Difference (memantine minus placebo, LS mean) ([2]; LOCF analysis, p=0.003): −1.9
ADAS-cog Non-Responder, number of patients ([2]; OC analysis): 129/126
ADAS-cog Responder (change from baseline <= -4), number of patients ([2]; OC analysis): 33/34
ADAS-cog Difference (memantine minus placebo, LS mean) ([2]; OC analysis, p=0.130): −1.1
ADAS-cog LS mean change ([2]; week 8, LOCF, placebo 0.2, p 0.003): −1.2
ADAS-cog LS mean change ([2]; week 8, OC, placebo 0.2, p=0.006): −1.1
ADAS-cog LS mean change ([2]; week 12, LOCF, placebo -0.1, p=0.009): −1.4
ADCS-ADL Difference (memantine minus placebo, LS mean) ([3]; LOCF analysis, p=0.890): 0.1
ADCS-ADL Difference (memantine minus placebo, LS mean) ([3]; OC analysis, p=0.975): 0.0
